Results as given in US5084564A, “Production of oligosaccharide fractions having antithrombotic properties by controlled chemical depolymerization of heparin” (Bioiberica, S.A., priority 1988, dated 1992).

Conditions: rat, in vivo, sc

bioavailability: 48-60%
Substance: heparin
